Non-standard residues stand in square brackets, D forms with d. Tiq = 1,2,3,4-tetrahydroisoquinoline-1-carboxylic acid; Nle = CCCC[C@H](N)C(=O)O
How the values were obtained:
hMC5-R = target: T1, hMC5-R (Homo sapiens, UniProt P33032); experiment: Competitive binding assay: inhibition of 125I-NDP-α-MSH binding to HEK-293 membranes with cloned human receptor subtype 5; conditions: Table 6; 1 μM; mean of triplicate
T1 construct: expressed in transfected cells; host or cells: HEK-293
Summary of the method: (§1)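 Membranes: B16-F10 mouse melanoma (MC1-R) or HEK-293 expressing cloned human subtypes. Radioligand 125I-NDP-α-MSH; NSB with 1 μM α-MSH; metallopeptide at chosen concentration; readout % inhibition of specific binding.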

MC1-R = target: T2, MC1-R (Mus musculus, UniProt Q01727); experiment: Competitive binding assay: inhibition of 125I-NDP-α-MSH binding to membranes from B16-F10 mouse melanoma cells; conditions: Table 6; 1 μM; mean of triplicate
T2 construct: MC1-R membranes were isolated from B16—F10 mouse melanoma cells; endogenous in cells; host or cells: B16-F10 mouse melanoma cells
Summary of the method: as §1

hMC2-R = target: T3, hMC2-R (Homo sapiens, UniProt P41968); experiment: Competitive binding assay of additional compounds, Table 6 hMC2-R; conditions: 1 μM, mean of triplicate
T3 construct: expressed in transfected cells; host or cells: HEK-293

MC4-R = target: T4, MC4-R (Homo sapiens, UniProt P32245); experiment: Competitive binding assay: inhibition of 125I-NDP-α-MSH binding to HEK-293 membranes with cloned human receptor subtype 4; conditions: Table 6; 1 μM; mean of triplicate
T4 construct: expressed in transfected cells; host or cells: HEK-293
Summary of the method: as §1

T3 sequence (P41968 whole entry): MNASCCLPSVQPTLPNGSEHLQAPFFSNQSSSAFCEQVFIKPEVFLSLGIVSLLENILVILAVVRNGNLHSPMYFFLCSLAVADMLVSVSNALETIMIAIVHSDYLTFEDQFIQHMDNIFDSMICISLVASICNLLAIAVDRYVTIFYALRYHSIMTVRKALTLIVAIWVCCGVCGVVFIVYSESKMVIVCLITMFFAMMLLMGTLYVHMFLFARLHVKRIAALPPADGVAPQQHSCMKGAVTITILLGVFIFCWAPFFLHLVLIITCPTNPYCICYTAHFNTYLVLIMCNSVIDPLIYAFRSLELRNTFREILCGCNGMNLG
T2 sequence (Q01727 whole entry): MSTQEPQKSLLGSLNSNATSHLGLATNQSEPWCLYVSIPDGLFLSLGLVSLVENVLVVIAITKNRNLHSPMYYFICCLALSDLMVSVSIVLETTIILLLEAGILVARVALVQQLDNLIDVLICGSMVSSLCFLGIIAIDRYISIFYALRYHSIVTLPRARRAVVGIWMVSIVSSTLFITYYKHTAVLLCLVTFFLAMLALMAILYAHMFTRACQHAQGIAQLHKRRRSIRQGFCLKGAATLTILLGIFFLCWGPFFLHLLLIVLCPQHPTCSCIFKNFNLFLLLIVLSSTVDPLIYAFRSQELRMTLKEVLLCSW
T1 sequence (P33032 whole entry): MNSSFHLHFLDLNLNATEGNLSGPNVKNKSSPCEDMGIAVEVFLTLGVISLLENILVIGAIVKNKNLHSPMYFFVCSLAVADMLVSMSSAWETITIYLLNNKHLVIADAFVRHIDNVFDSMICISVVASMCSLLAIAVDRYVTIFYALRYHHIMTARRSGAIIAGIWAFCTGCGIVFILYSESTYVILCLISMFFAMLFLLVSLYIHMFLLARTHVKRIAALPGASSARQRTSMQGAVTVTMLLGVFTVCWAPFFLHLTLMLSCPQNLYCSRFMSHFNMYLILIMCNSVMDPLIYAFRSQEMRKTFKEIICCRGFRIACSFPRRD
T4 sequence (P32245 whole entry): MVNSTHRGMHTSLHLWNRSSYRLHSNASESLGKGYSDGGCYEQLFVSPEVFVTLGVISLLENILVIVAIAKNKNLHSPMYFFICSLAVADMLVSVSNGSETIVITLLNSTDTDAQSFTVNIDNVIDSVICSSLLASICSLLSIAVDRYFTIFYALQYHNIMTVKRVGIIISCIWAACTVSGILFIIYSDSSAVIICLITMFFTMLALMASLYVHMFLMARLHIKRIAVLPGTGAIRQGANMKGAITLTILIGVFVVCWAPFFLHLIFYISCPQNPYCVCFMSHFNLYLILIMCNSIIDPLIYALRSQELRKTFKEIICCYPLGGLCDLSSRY

Substance | % Inhibition of Binding hMC5-R (hMC5-R) [%] | % Inhibition of Binding MC1-R (MC1-R) [%] | % Inhibition of Binding hMC2-R (hMC2-R) [%] | % Inhibition of Binding hMC4-R (MC4-R) [%]
3′-Bromo phenyl acetyl-Arg-Ala-D-Phe(4′-Cl)-Cys-Trp-NH2 | 86 | 8 | 35 | 80
Ac-[Nle]AF[dF]RCW-NH2 | 71 | 58 | 0 | 16
Ac-Nle-Ala-His-D-Phe-Arg-D-Nal 2′-Cys-NH2 | 54 | 100 | 0 | 90
Amb-D-Phe-Arg-Cys-Trp-NH2 | 1 | 39 | 0 | 0
Ac-Nle-Ala-His-D-Phe-Arg-His-Cys-NH2 ({Ac-Nle-Ala-H2N}-[dF]RHC-NH2; not fully specified; printed as Ac-Nle-Ala-His-D-Phe-Arg-His-Cys-NH2) | 0 | 58 | 0 | 1

More lines, now with the values ahead:

% Inhibition of Binding hMC5-R (hMC5-R) [%] | % Inhibition of Binding MC1-R (MC1-R) [%] | % Inhibition of Binding hMC2-R (hMC2-R) [%] | % Inhibition of Binding hMC4-R (MC4-R) [%] | Substance
13 | 2 | 3 | 0 | Tic-D-Phe(4′-Cl)-Gln-Cys-NH2
83 | 10 | 52 | 92 | Tic-D-Nal-2′-Arg-Trp-Cys-NH2
59 | 15 | 26 | 69 | Tic-D-Phe(2′-Cl)-Arg-Trp-Cys-NH2
92 | 56 | 46 | 68 | 3′-Br Phenyl acetyl-Arg-Arg-D-Bip-Cys-Bip-NH2
55 | 7 | 7 | 8 | Tiq-D-Phe-Arg-Trp-Cys-NH2 (Tiq-[dF]RWC-NH2; also: metal complex)
82 | 95 | 22 | 65 | Ac-Nle-Ala-His-D-Phe-Arg-Nal 1′-Cys-NH2
